We go through ten compounds from patent US8158621B2, “Methods of treating or preventing autoimmune diseases with 2,4-pyrimidinediamine compounds” (Rigel Pharmaceuticals, Inc., priority 2002, dated 2012).

In data set [1] the test system is bone marrow derived mast cells (BMMC). Briefly: BMMC high cell density IgE activation: TNFalpha. The data set is classed as cell-based, mouse. The note with it: read-out: BMMC anti-IgE TNF-alpha. Put shortly: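 Mediator release from sensitized BMMC: after 1 h compound exposure at 37 °C (0.5% DMSO), cells challenged with DNP-BSA for 1 h and early supernatant collected. Cells then recultured 4-5 h in conditioned medium with compound; cytokines IL-6 and TNFα quantified by ELISA.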

For data set [2], the system named is IgE-induced degranulation of tissue mast cells. Put plainly: Mouse model of passive cutaneous anaphylaxis (PCA). The data set is classed as in vivo. Conditions: for Plasma level: duration of action (TABLE 4): PO; for FcεR-mediated vascular leakage: increasing doses; for % Inhibition: PO. The protocol: This model provides a direct measure of IgE-induced degranulation of tissue mast cells. In this model, IgE primed animals are exposed to an allergen challenge, and the change in permeability of dermal vasculature that results from histamine release from mast cells is measured by change in the amount of dye leakage into surrounding tissue. Inhibition of mediator release by compounds that modulate mast cell degranulation is easily measured by extracting the dye from the tissue.
In the PCA assay mice are passively sensitized by intradermal injection with anti-dinitrophenol (DNP) IgE antibodies (Day −1). At predetermined times animals are treated with the test agent (Day 0). The modulatory effect of the agent on cutaneous mast cell degranulation is measured following intravenous injection of DNP conjugated to human serum albumin (HSA-DNP), together with Evans blue dye. The resulting cross-linking of the IgE receptor and subsequent mast cell degranulation-induced increase in vascular permeability is determined by measuring the amount of dye extravasation into the tissue. Dye is extracted from the tissue by formamide, and the absorbance of this extract is read at 620 nm.

Data set [3] in a line: Sheep model of allergic asthma. It counts as in vivo. The protocol:
In the sheep model of allergic asthma, sheep are administered aerosols of test article via an endotracheal tube, followed by an aerosol challenge with antigen extracted from the roundworm, Ascaris suum, to which the sheep are naturally allergic. Allergen challenge leads to direct bronchoconstriction (both EAR and LAR) and a persistent non-specific AHR. These three characteristics are similar to those seen in human allergic asthmatics. The activity of the test agent is determined by changes in the lung resistance (RL), which is calculated from measurements of transpulmonary pressure, flow, and respiratory volume. […] The LAR is a less pronounced increase in RL, which starts approximately 5-6 hours following allergen challenge and is resolved by 8 hours post-challenge. Twenty-four hours after the challenge, a dose response to carbachol is measured to determine the AHR, which is expressed as the dose of carbachol required to increase RL by 400% over baseline. (This measurement is referred to as the provocative concentration of carbachol that elicits a 400% increase in RL over baseline (PC400). The data are compared to historical control data for the same individual when administered a saline control aerosol and challenged with Ascaris suum.

Data set [4] concerns cultured human mast cells (CHMC). Briefly: CHMC low cell density IgE activation: LTC4 assay. Conditions: anti-IgE activation, LTC4 release. The data set is classed as cell-based. Put shortly: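 Cultured human mast cells at low density (1000-1500 per well) rested 1 h at 37° C, then stimulated with anti-IgE for 30 min at 37° C. Supernatant tryptase measured with fluorogenic substrate (30 min, room temperature); LTC4 quantified by ELISA on diluted supernatant.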

Another data set concerns Jurkat cells. Put plainly: Jurkat (T-cell) toxicity, light scatter. Conditions: read-out: Toxicity Jurkat Light Scat. The data set is classed as cell-based, human. The protocol: Dilute Jurkat cells to 2×10^5 cells/ml in complete RPMI (10% heat-inactivated fetal bovine serum) media and incubate at 37° C., 5% CO2 for 18 hours. Add 65 ul cells at 7.7×10^5 cells/ml to a 96-well V-bottom plate (TC-treated, Costar) containing 65 ul 2× compound (final vehicle concentration is 0.5% DMSO, 1.5% MeOH). Mix, incubate plates for 18-24 hr at 37° C., 5% CO2. Toxicity was assessed by flow cytometric analysis of cellular light scatter

Data set [5] concerns bone marrow derived mast cells (BMMC). Put plainly: BMMC high cell density ionomycin activation: hexosaminidase. It counts as cell-based, mouse. The note with it: read-out: BMMC Ionomycin Hexos. The protocol:
Add 50 uL of BMMC cell supernatant (see above) to the hexoseaminidase substrate, place at 37° C. for 30 minutes and read the plate at 5, 10, 15, and 30 minutes on a spectrophotometer.

Data set [6] concerns cultured human mast cells (CHMC). Put plainly: CHMC low cell density ionomycin activation: hexosaminidase assay. The data set is classed as cell-based. The note with it: hexosaminidase release, read-out: CHMC Ionomycin Hexos. IC50. The protocol:
Inhibition of degranulation was measured at both low and high cell density by quantifying the release of the granule specific factors tryptase, histamine and hexosaminidase. Inhibition of release and/or synthesis of lipid mediators was assessed by measuring the release of leukotriene LTC4 and inhibition of release and/or synthesis of cytokines was monitored by quantifying TNF-α, IL-6 and IL-13. Tryptase and hexosaminidase were quantified using fluorogenic substrates as described in their respective examples. Histamine, TNFα, IL-6, IL-13 and LTC4 were quantified using the following commercial ELISA kits: histamine (Immunotech #2015, Beckman Coulter), TNFα (Biosource #KHC3011), IL-6 (Biosource #KMC0061), IL-13 (Biosource #KHC0132) and LTC4 (Cayman Chemical #520211). The protocols of the various assays are provided below.

Where [7] appears, read: administered in an aqueous suspension.
[8] abbreviates: dose, pretreatment and vehicle per compound as in TABLE 5.

On to `CC1(C)Oc2ccc(Nc3nc(Nc4cc(Cl)cc(Cl)c4)ncc3F)cc2NC1=O` [Compound R927064], for which the IC50 in data set [1] (high cell density) turned out to be 1920 nM.

For the compound `Nc1cccc(Nc2ncc(F)c(Nc3cccc(N)c3)n2)c1` [Compound R921302], the Plasma level turned out to be 88 µg/mL in data set [2] (1.5% Avicel/water, 200 mg/kg, pretreatment 30 min); 53 µg/mL in data set [2] (1.5% Avicel/water, 200 mg/kg, pretreatment 60 min); 61 µg/mL in data set [2] (1.5% Avicel/water, 200 mg/kg, pretreatment 120 min); 8 µg/mL in data set [2] (1.5% Avicel/water, 200 mg/kg, pretreatment 240 min). Moreover, the FcεR-mediated vascular leakage result in data set [2] is reported as “dose-dependent inhibition”. For the same compound, the EAR entry in data set [3] (setting [7]) is recorded as “failed to inhibit”; in data set [3] (setting [8]), “unaffected”. In data set [3] (setting [8]), the “LAR and AHR” value was “blocked”.

As to `COc1ccc(Nc2ncc(F)c(Nc3ccc(OC)c(OC)c3)n2)cc1OC` [Compound R926110], the IC50 is 1420 nM in data set [4], over 10000 nM with Jurkat cells, 4500 nM in data set [5] and over 10000 nM in data set [6].

Turning to `CNC(=O)COc1cccc(Nc2ncc(F)c(Nc3ccc4c(c3)NCCO4)n2)c1` [Compound R921219], the % Inhibition (in general, the drop in the measured response relative to a control, in per cent) in data set [2] (1.5% Avicel/water, pretreatment 15 min, 30 mg/kg) came to 25%; in data set [2] (1.5% Avicel/water, pretreatment 15 min, 100 mg/kg), 68%; in data set [2] (1.5% Avicel/water, pretreatment 15 min, 300 mg/kg) it was 92%. Further, in data set [2] (dose level of 100 mg/kg), the “circulating exposure levels at which active” value is listed as “approximately 10 μg/m1”. For the same compound, in data set [2], the FcεR-mediated vascular leakage entry is “dose-dependent inhibition”. For the same compound, the EAR entry in data set [3] (setting [8]) is recorded as “greatly reduced”. Also, in data set [3] (setting [8]), the “LAR and AHR” value was “blocked”.

As for `Fc1cnc(Nc2ccc3c(c2)OCCO3)nc1Nc1ccc2c(c1)OCCO2` [Compound R926109], the IC50 is 730 nM in data set [4], over 10000 nM in the data set with Jurkat cells, 3200 nM in data set [5] and over 10000 nM in data set [6]. Also, the “% Inhibition” value in data set [2] (67% PEG/33% citrate buffer, pretreatment 15 min, 50 mg/kg) was found to be 22%; in data set [2] (67% PEG/33% citrate buffer, pretreatment 15 min, 100 mg/kg), 32%; in data set [2] (67% PEG/33% citrate buffer, pretreatment 15 min, 200 mg/kg) it was 48%. Further, the FcεR-mediated vascular leakage entry in data set [2] is listed as “dose-dependent inhibition”.

Take `COc1cc(Nc2ncc(F)c(Nc3ccc4c(c3)NC(=O)C(C)(C)O4)n2)cc(OC)c1` [Compound R927050]: the IC50 in data set [1] (high cell density) was 19 nM.

For the compound `CNC(=O)COc1cccc(Nc2ncc(F)c(Nc3cccc(O)c3)n2)c1` [Compound R926508], in data set [3] (setting [8]), the EAR entry is “greatly reduced”; the “LAR and AHR” value was “blocked”.

Regarding `Oc1cccc(Nc2ncc(F)c(Nc3cccc(O)c3)n2)c1` [Compound R921218], the IC50 in data set [4] is 550 nM; in data set [1] (High Density), 274 nM; in the data set with Jurkat cells it was over 10000 nM; in data set [5], over 10000 nM. In addition, the “% Inhibition” value in data set [2] (67% PEG/33% citrate buffer, pretreatment 10 min, 50 mg/kg) is reported as 7%; in data set [2] (67% PEG/33% citrate buffer, pretreatment 10 min, 100 mg/kg), 11%; in data set [2] (67% PEG/33% citrate buffer, pretreatment 10 min, 200 mg/kg), 50%. Besides, in data set [2], the FcεR-mediated vascular leakage entry is reported as “dose-dependent inhibition”. In addition, the EAR entry in data set [3] (setting [7]) is given as “failed to inhibit”.

In the case of `OCCCn1ncc2cc(Nc3ncc(F)c(Nc4ccc(Cl)c(Cl)c4)n3)ccc21` [Compound R935391], the IC50 in data set [1] (high cell density) came to 190 nM.

As to `COc1ccc(Nc2ncc(F)c(Nc3cccc(O)c3)n2)cc1OC` [Compound R926113], the IC50 is 490 nM in data set [4], over 10000 nM with Jurkat cells, over 10000 nM in data set [5] and over 10000 nM in data set [6].
